# Measured values published in US11426415B2, “Treatment for Wolfram syndrome and other endoplasmic reticulum stress disorders” (Washington University, priority 2017, dated 2022).
# Like-named read-outs stand apart in the source and are kept apart here.
# What was measured:
# [1] = system: mouse model of SCA; conditions: given with a RyR inhibitor; cited from earlier work
# [2] = Pharmacokinetic study of JTV519 in CD1 mice (UPLC-MS/MS); format: in vivo; conditions: for AUC(0-inf) / Cmax / half-life / Kp: CD-1 mouse; for Kp: read-out: AUC ratio (with plasma)
# Description: To study the pharmacokinetics of JTV519, the compound was synthesized as the HCl salt and formulated as a clear solution in 20% HP-β-CD in saline and intraperitoneally injected into CD1 mice. Samples of blood and pancreas tissue and whole brain and heart organs were collected from the mice and analyzed.
# An ultra-performance liquid chromatography-tandem mass spectrometry (UPLC-MS/MS) method was developed to determine sample concentrations in the samples. Mass spectrometric analysis was performed on a Waters Xevo TQ-S triple quadrupole instrument using electrospray ionization in positive mode with the selected reaction monitoring (SRM). The MS/MS parameters were optimized by infusion compounds. The separation was performed on an Acquity BEH C18 column (50×2.1 mm, 1.7μ) using a Waters Acquity UPLC system with 0.6 mL/min flow rate and gradient elution. The column temperature was maintained at 60° C. The calibration standards (1.0-5000 ng/mL) and quality control samples were prepared in the blank mouse plasma. 10 μL plasma samples were mixed with 200 μL internal standard in acetonitrile to precipitate proteins in a 96-well plate. 1.0 μL supernatant was injected for the UPLC-MS/MS analysis
# [3] = system: INS-1 823/13 cells; experiment: Thapsigargin-mediated cell death (caspase 3/7-Glo luminescence); format: cell-based; conditions: pretreated 24 hours, then 0.5 nM thapsigargin overnight; FIGS. 7-9
# Source text: (§1) A Caspase 3/7 assay (Promega, Madison, Wis.) was utilized to measure caspase-3 and -7 activities in various cell lines. The assay provides a proluminescent caspase-3/7 substrate, which contains the tetrapeptide sequence DEVD. This caspase-3/7 substrate can be added directly to cell lysates. The substrate is cleaved to release an aminoluciferin, which is a substrate for luciferase used in the production of light. The signal is proportional to caspase-3/7 activity. The stabilized luciferase and proprietary buffer system improve assay performance across a wide range of assay conditions, and the assay is less likely to be affected by compound interference unlike fluorescent- or colorimetric-based assays
# The pathway leading to calpain-2 activation provides potential therapeutic targets for Wolfram syndrome, such as leakage of ER calcium to the cytosol. To test this concept, a small-scale screen was performed to identify chemical compounds that could prevent cell death mediated by thapsigargin, a known inhibitor for ER calcium ATPase. INS-1 823/13 cells were pretreated with […] in media containing 0.5 nM of thapsigargin (TG) overnight. Apoptosis was detected by caspase 3/7-Glo luminescence.
# [4] = system: WFS1 gene knockout mice; experiment: Motor function study, 90° inclined screen test; format: in vivo; conditions: i.p. 15 mg/kg/day, 5 days per week, 6 weeks, vs control mice, FIG. 11
# Description: WFS1 gene knockout mice, a mouse model of Wolfram syndrome, were treated with JTV519 (i.p. injections, 15 mg/kg/day, 5 days per week) or saline after they become 6 weeks old for 6 weeks (5 female mice for each group). Littermate wild-type control mice were treated by saline (VEH) for 6 weeks (3 female mice). Motor functions of the WFS1 knockout were evaluated using a 90° inclined screen test.
# For the 90° inclined screen test, each mouse was placed on top of an elevated (47 cm above the floor) wire mesh grid (16 squares per 10 cm) that was inclined to 90°. Each mouse was placed in the middle of the screen with its head oriented down and was timed for how long it remained on the screen and how long it took to climb to the top of the screen.
# [5] = system: INS-1E cells; experiment: Cytokine-induced cell death in INS-1E cells (caspase 3/7 activity assay); format: cell-based; conditions: 1 μM-50 μM for 24 hours, then IL-1β and IFN-γ 50 ng/ml for 24 hours; FIG. 10
# Source text: as §1
# To determine whether JTV519 can prevent ER calcium depletion and confer protection against ER stress-mediated cell death in a cell model of type 1 diabetes. INS-1E cells were pre-treated with 1 μM-50 μM of JTV519 for 24 hours then stressed for 24 hours with cytokines (IL-1β and IFN-γ 50 ng/ml). Apoptotic cell death was measured via caspase 3/7 activity assay. […] Data are expressed as mean±SEM from three independent experiments. *p<0.05 compared to cytokine treated cells unpaired t-test.
# [6] = system: INS-1 832/13 cells; experiment: Cytosolic calcium levels by Fura-2AM in INS-1 832/13 cells challenged with thapsigargin; format: cell-based; conditions: range of concentrations, thapsigargin 1 μM added, FIGS. 5 and 6
# Description: INS-1 832/13 cells were treated with JTV519 or JTV519-oxidized over a range of concentrations. Cytoplasmic calcium levels were measured by Fura-2AM calcium indicator over a period of minutes. Thapsigargin (1 μM) was added at the time point indicated by an arrow (n=6, the experiment was repeated 6 independent times) on FIGS. 5 and 6.
# [7] = system: WFS1 depleted INS-1 832/13 cells; experiment: Cell death in WFS1 depleted INS-1 832/13 cells (Caspase 3/7 activation); format: cell-based; conditions: pretreated 24 h with various concentrations, then DOX 48 h to deplete WFS1; FIGS. 3 and 4
# Source text: as §1
# INS-1 832/13 cells in which WFS1 expression could be depleted by doxycycline (DOX)-inducible expression of shWFS1 were pretreated with or without various concentrations of JTV519 or oxidized JTV519 for 24 h and then treated with DOX for 48 h to deplete WFS1 and induce cell death. Apoptosis was measured by monitoring Caspase 3/7 activation.
# [8] = conclusion from the pharmacokinetic study
compound,measurement,setting,value
"O=C1CN(/N=C/c2ccc(-c3ccc([N+](=O)[O-])cc3)o2)C(=O)[N-]1.[Na+] [Dantrolene, 1-[[5-(4-nitrophenyl)-2-furyl]methylideneamino]imidazolidine-2,4-dione]",age dependent deficit of motor coordination,[1],ameliorated the age dependent deficit of motor coordination
"COc1ccc2c(c1)CN(C(=O)CCN1CCC(Cc3ccccc3)CC1)CCS2 [JTV519, 3-(4-benzyl-1-piperidinyl)-1-(7-methoxy-2,3-dihydro-1,4-benzothiazepin-4(5H)-yl)-1-propanone]",AUC(0-inf),"[2]; brain, ip 30 mg/kg, n = 3",10100 ng·h/mL
same,Cmax,"[2]; brain, ip 30 mg/kg, n = 3",5130 ng/mL
same,half-life,"[2]; brain, ip 30 mg/kg, n = 3",5.1 h
same,Kp,"[2]; brain, ip 30 mg/kg, n = 3",2.9
same,permeability,[2]; [8],good
same,solubility,[2]; [8],good
same,blood brain barrier passage,"[2]; conclusion from the pharmacokinetic study, ip 30 mg/kg, mice",passed the blood brain barrier
same,AUC(0-inf),"[2]; heart, ip 30 mg/kg, n = 3",29200 ng·h/mL
same,Cmax,"[2]; heart, ip 30 mg/kg, n = 3",14300 ng/mL
same,half-life,"[2]; heart, ip 30 mg/kg, n = 3",4 h
same,Kp,"[2]; heart, ip 30 mg/kg, n = 3",8.4
same,AUC(0-inf),"[2]; pancreas, ip 30 mg/kg, n = 3",146000 ng·h/mL
same,Cmax,"[2]; pancreas, ip 30 mg/kg, n = 3",105000 ng/mL
same,half-life,"[2]; pancreas, ip 30 mg/kg, n = 3",4.5 h
same,Kp,"[2]; pancreas, ip 30 mg/kg, n = 3",42
same,AUC(0-inf),"[2]; plasma, ip 30 mg/kg",3460 ng·h/mL
same,half-life,"[2]; plasma, ip 30 mg/kg",7.1 h
same,Cmax,"[2]; plasma, ip 30 mg/kg, HCl salt in 20% HP-β-CD in saline",1810 ng/mL
same,"thapsigargin mediated cell death (apoptosis, caspase 3/7-Glo)",[3],did not significantly suppress thapsigargin mediated cell death
same,motor functions (time to reach the top of the screen),[4],improved motor functions
same,cytokine-induced cell death (caspase 3/7 activity),[5],protects INS-1E cells from cytokine-induced cell death
same,cytosolic calcium levels,[6],decreased cytosolic calcium levels
same,"cell death (apoptosis, Caspase 3/7 activation)",[7],suppress cell death
